Data taken from US10758516B2, “Methods and compositions for the treatment of gliomas” (University of Cincinnati, priority 2017, dated 2020).

Assays:
EP2 receptor [1] = target: T1, EP2 receptor (Homo sapiens, UniProt P43116); experiment: PGE2-mediated cAMP signaling in LN229 glioma cells; format: cell-based; conditions: for PGE2-promoted cAMP synthesis: antagonist 1 μM and 10 μM, n=5
T1 construct: endogenous in cells; host or cells: SF767 human glioblastoma cells
Source text: (§1) FIG. 1. Bar graph showing PGE2 mediated cAMP signaling via EP2 receptor in human malignant glioma cells LN229 (top) and SF767 (bottom).
(§2) (n=5, *P<0.05; ***P<0.001, one-way ANOVA and post-hoc Bonferroni test). Data are shown as mean+SEM.

EP2 receptor [2] = target: T1, EP2 receptor; experiment: PGE2-mediated cAMP signaling in SF767 glioma cells; format: cell-based; conditions: for PGE2-promoted cAMP synthesis: antagonist 1 μM and 10 μM, n=5
Source text: as §1, §2

human GBM cells SF767 = experiment: Cell invasion of COX-2-overexpressing SF767 cells; format: cell-based; conditions: 10 μM, measured after 48 h, n=4, P<0.01 vs control
GBM cells LN229 = experiment: Wound closure (migration) of COX-2-overexpressing LN229 cells; format: cell-based, human; conditions: 10 μM, n=3, compared with COX-2 overexpression group
[3] = test system: flank tumors formed by human GBM cells SF767; experiment: Flank (subcutaneous) tumor xenograft in athymic nude mice; format: in vivo; conditions: 10 mg/kg, p.o., b.i.d.; measured 4 weeks after xenograft surgery; n=7, P<0.05
Source text: FIG. 4. Bar graph comparing flank tumor size in athymic nude mice treated with vehicle versus mice treated with TG6-10-1 measured 4 weeks after xenograft surgery.
Data are shown as mean+SEM.

[4] = test system: intracranial tumors formed by human GBM cells LN229; experiment: Intracranial (orthotopic) tumor xenograft in athymic nude mice; format: in vivo
Source text: FIG. 8. Graph showing that the survival rate of mice harboring intracranial tumors derived from human GBM cells LN229 receiving TG6-10-1 is greater than the survival rate of mice receiving vehicle only.
Data are shown as mean±SEM.
Survival rates of mice that harbored intracranial tumors derived from human GBM cells LN229 after receiving vehicle (n=20) or TG6-10-1 (n=28) for 28 days (P=2.835E-4 Kaplan-Meier survival analysis with post-hoc log-rank test).

[5] = concentration-dependent, forskolin 100 μM

T1 sequence (P43116 whole entry): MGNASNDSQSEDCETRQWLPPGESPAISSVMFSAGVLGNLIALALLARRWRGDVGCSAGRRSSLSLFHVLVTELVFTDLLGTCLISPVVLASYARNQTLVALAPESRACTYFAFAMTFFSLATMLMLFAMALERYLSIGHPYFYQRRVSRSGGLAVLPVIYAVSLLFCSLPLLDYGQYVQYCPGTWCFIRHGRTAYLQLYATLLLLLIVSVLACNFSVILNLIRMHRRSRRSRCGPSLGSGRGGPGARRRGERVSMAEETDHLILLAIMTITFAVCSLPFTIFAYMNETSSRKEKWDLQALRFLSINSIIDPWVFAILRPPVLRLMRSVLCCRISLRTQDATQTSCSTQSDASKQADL

Row | SMILES | cAMP levels (EP2 receptor [1]; [5]) | cAMP levels (EP2 receptor [2]; [5]) | cell invasion increased by COX-2 overexpression (human GBM cells SF767) | PGE2-promoted cAMP synthesis (EP2 receptor [1]) | wound closure increased by COX-2 overexpression (GBM cells LN229) | PGE2-promoted cAMP synthesis (EP2 receptor [2]) | growth of flank tumors [3] | growth of intracranial tumors ([4]; 10 mg/kg, p.o., b.i.d., bioluminescence weekly, n=7, P<0.01) | survival of mice harboring intracranial tumors ([4]; treatment for 28 days, vehicle n=20, TG6-10-1 n=28, P=2.835E-4, Kaplan-Meier, log-rank)
1 | CCCCC[C@H](O)/C=C/[C@H]1[C@H](O)CC(=O)[C@@H]1C/C=C\CCCC(=O)O [PGE2, Prostaglandin E2, reference compound] | increases cAMP levels | increases cAMP levels |  |  |  |  |  |  | 
2 | COc1cc(/C=C/C(=O)NCCn2c(C)cc3ccccc32)cc(OC)c1OC [TG4-155] |  |  | attenuated | largely blocked | attenuated | largely blocked |  |  | 
3 | COc1cc(/C=C/C(=O)NCCn2c(C(F)(F)F)cc3ccccc32)cc(OC)c1OC [TG6-10-1] |  |  | attenuated | largely blocked | attenuated | largely blocked | reduced the growth | reduced the growth | improved survival
